Data from patent US8466311B2, “Neuroprotective compositions and methods” (Sanford-Burnham Medical Research Institute, priority 2006, dated 2013).

What was measured:
ARE [1] = test: ARE luciferase reporter in cortical cultures; type: cell-based, rat
Method: Cortical cultures (E17, DIV21) were transfected with ARE-luciferase reporter gene DNA (1 μg/well) and co-transfected with pEF6 or pEFNrf2DN. CA (3 μM) or vehicle was then added to the cultures. After a 24-h incubation, cell lysates were used for luciferase reporter gene assays. Values are mean±SEM; *p<0.01 by ANOVA.
Next, transcriptional activation of the HO-1 promoter by NEPP was examined by reporter gene assays in primary neurons. Cortical cultures were transfected with reporter cDNAs (1 μg per well), and 0.7 μM NEPP11 was added to the cultures. After a 24 h incubation, cell lysates were subjected to luciferase reporter assays. […] If the Keap1/Nrf2 pathway, indeed, mediates activation of the HO-1 promoter by NEPP11, mutant Nrf2 protein should inhibit this activation. […] Moreover, the selective activation in neurons may explain the relatively small amplitude of total HO-1 activation seen in the mixed neuronal/glial culture system in which glia predominate.
(§1) Transient transfection and measurement of luciferase activity. PC12h cells or cerebrocortical cultures (E17, DIV21) were incubated for 5 h in EBSS containing 1 μg of a plasmid DNA plus Lipofectamine 2000 (Invitrogen, Carlsbad, Calif.). Transfection efficiency was normalized to β-galactosidase activity expressed by co-transfection with pSV-β-gal (Promega). For reporter gene assays, cells were transfected with 1 μg of the reporter construct [ARE(GSTYa)-luciferase] and 0.2 μg pSV-β-gal for 1 hour. The cells were then washed in PBS alone and incubated in the culture medium for another 24 h with or without CA. Firefly luciferase activity and β-galactosidase activity in cell lysates were measured using a Luciferase System and β-Galactosidase Enzyme Assay System, respectively (Promega, Madison, Wis.).
To confirm that CA activated the ARE in these cortical cultures, we performed luciferase reporter gene assays. […] CA accumulates both in neurons and in non-neuronal cells (FIG. 5).

MCAO/reperfusion injury = test: Focal cerebral ischemia: MCAO/reperfusion in mice; type: in vivo, mouse
Method: Focal cerebral ischemia and reperfusion. The filament model of middle cerebral artery occlusion (MCAO)/reperfusion was used as described (Gu et al., Science 297:1186-1190, 2002; see Supporting Methods in Supporting Text).
NEPP11 or vehicle was injected intraperitoneally (i.p.) 1 h before and 4 h after MCAO. The area of brain infarction (corrected for possible edema) was assessed on coronal sections from vehicle- and NEPP11-treated mice stained with 2.5% 2,3,5-triphenyltetrazolium chloride 24 h after the onset of reperfusion.
Focal Cerebral Ischemia and Reperfusion. NEPP11 was injected at 100 mg/ml in a 7.5% solution of DMSO in PBS; controls received the diluent alone. The investigator was blinded as to the treatment group. The injected volume was 10 ml/g of body weight, corresponding to 1 mg/kg. […] Other physiological parameters were monitored, including systemic blood pressure, glucose, and arterial blood gasses and pH. […] Occlusion and reperfusion of blood flow were monitored by laser Doppler flowmetry. […]
After the reperfusion period, the animals were killed. […] Areas of infarction occurred in the right middle cerebral artery territory of each brain slice and were quantified with a computerized image analysis system (NIH image 1.62) as described (Gu et al., Science 297:1186-1190, 2000). […]

cerebrocortical neurons = test: NMDA-induced neuronal cell death (excitotoxicity) in cerebrocortical cultures
Method: We stained the cultures with both anti-MAP-2 and anti-NeuN monoclonal antibodies to label neuronal dendrites and nuclei, respectively. Vehicle or NEPP11 (0.7 μM) was added to cerebrocortical cultures (E17 and DIV14-21) 60 min before treatment with NMDA (50 μM) for 15 min. The cultures were then incubated for 20 h and subsequently stained with anti-MAP-2 and anti-NeuN and with Hoechst dye. Apoptotic nuclei were identified by morphological changes seen with Hoechst staining. […] We also added zinc protoporphyrin (ZnPP, 10 μM), a relatively specific HO-1 antagonist, simultaneously with NEPP11. The number of apoptotic neurons was assessed by determining the apoptotic index [(number of condensed nuclei in MAP-2 or NeuN-positive cells)/(number of total MAP-2 or NeuN-positive cells)×100%], as reported by Bonfoco et al. (Proc. Natl. Acad. Sci. USA 92:7162-7166, 1995).
Cerebrocortical cultures were prepared from embryonic day-17 Sprague-Dawley rats and used at day 14-21 in vitro (DIV14-21), as described (Bonfoco et al., Proc. Natl. Acad. Sci. USA 92:7162-7166, 1995). To induce predominantly neuronal apoptosis (rather than necrosis), we exposed cortical cultures to 50 mM NMDA plus 5 mM glycine/1.8 mM CaCl2 in nominally Mg^2+-free Earle's balanced salt solution for 15 min (Bonfoco et al., Proc. Natl. Acad. Sci. USA 92:7162-7166, 1995). After exposure to NMDA, the cultures were returned to normal medium containing vehicle or NEPP11 and incubated for 20 hr before analyzing cell survival. To assess the ability of NEPP compounds to block NMDA-induced neuronal apoptosis, we identified apoptotic neurons by double immunofluorescence with anti-NeuN and anti-MAP-2 to specifically label neurons and with Hoechst staining for nuclear morphology to detect apoptosis. The percentage of neurons and non-neuronal cells in our cultures was 33.6±4.9% and 66.4±4.4% (n=4), respectively.
In addition, we used mature cortical cultures (E17, DIV21) to assess excitotoxicity because functional NMDA receptors are expressed on these neurons.

Nrf2 = test: Intracellular distribution of Nrf2 protein in COS7 cells (immunofluorescence); type: cell-based; conditions: 10 μM CA
Method: Immunocytochemistry. Cultures were fixed with 3% paraformaldehyde at room temperature for 20 min. After three washes in PBS, the cells were permeabilized with 0.3% Triton X-100 for 5 min. After three additional washes in PBS, the cells were incubated at 4° C. overnight with primary antibodies. They were then washed three times in PBS containing 0.2% Tween 20 (PBS-T), and next incubated with secondary antibodies for 1 h at room temperature. Thereafter, the cells were again washed, and their nuclei stained with Hoechst 33,258 (5 μg/ml) or with DAPI (1 μg/ml) for 5 min. Stained preparations were mounted and examined by epifluorescence microscopy. The following primary antibodies were used: anti-Nrf2 antibody, anti-MAP2 and anti-NeuN antibodies to identify neurons (dendrites and nuclei, respectively), and anti-S100β antibody to identify astrocytes. As secondary antibodies, we used FITC-conjugated anti-mouse IgG, rhodamine-conjugated anti-mouse IgG, or rhodamine-conjugated streptavidin.
After binding of the electrophilic quinone-form of CA to Keap1 protein, activation of the Keap1/Nrf2 pathway requires nuclear translocation of Nrf2 (Talalay, Biofactors 12:5-11, 2000; Padmanabham et al., Mol. Cell 21:689-700, 2006; Itoh et al., Free Radic. Biol. Med. 36:1208-1213, 2004). Thus, we next examined the intracellular distribution of Nrf2 protein in COS7 cells by immunofluorescence.

ARE [2] = test: ARE(GSTYa)-luciferase reporter in PC12h cells; type: cell-based
Method: (1) pGL3-GSTYa ARE core-luciferase vector. […] The dsDNA thus obtained was inserted into the Mlu l and Bglll sites of the pGL3-promoter vector (Promega Co., Madison, Wis.).
as §1, with “The cells were then washed in PBS alone and incubated in the culture medium for another 24 h with or without CA.” left out
Next, we examined the involvement of the Keap1/Nrf2 pathway more precisely by studying activation of the ARE. This transcription element responds to the Keap1/Nrf2 pathway; we monitored activation of the ARE by performing luciferase reporter gene assays using PC12h cells transfected with ARE(GSTYa)-luciferase (Alam et al., J. Biol. Chem. 274:26071-26077, 1999) in the presence or absence of an Nrf2 dominant-negative (DN) or Keap1 expression vector.

GSH = test: Brain GSH and GSSG after feeding CA; type: in vivo, mouse; conditions: food containing 0.03% CA for a week
Method: Mice were fed 0.03% CA for 1 week, and their brains were then removed, lysed and subjected to GSH and GSSG measurement.
Measurement of brain GSH. After exsanguination via heart puncture under ether anesthesia, mouse brains were removed and quickly frozen in liquid nitrogen. We ruled out GSH as a contaminant from blood vessels by HPLC analysis of blood components in the brain lysates.
The frozen brains were lysed with 1% sulfosalicylic acid on ice for 10 min, and total glutathione (reduced and oxidized) was determined as described previously (Sagara et al., 2002). Briefly, after the lysates had been incubated on ice for 10 min, the supernatants were collected after centrifugation in Eppendorf microfuge tubes. Upon neutralization of each supernatant with triethanolamine, the total glutathione (reduced and oxidized) concentration was determined. Pure GSH was used to obtain the standard curve. For the determination of oxidized GSH, the method of Griffith using 2-vinylpyridine was used to deplete the reduced GSH.
Mice were allowed free access to food containing 0.03% CA for a week. Their brains were then removed, and extracts were prepared and measured for GSH and GSSG levels. Under these conditions, CA increased both total GSH+GSSG and the ratio of GSH/GSSG (FIG. 6). […]

COC(=O)CCCCC/C=C1/C(=O)C=C[C@H]1CCCCCCc1ccc(C)cc1 [NEPP11]
activity of the ARE core element (ARE [1]; NEPP11 0.7 μM, 24 h): significantly increased
infarct area in coronal sections (MCAO/reperfusion injury; NEPP11 1 mg/kg i.p. 1 h before and 4 h after MCAO, 2 hr MCAO, 24 hr reperfusion): significantly reduced
number of apoptotic neurons (cerebrocortical neurons; NEPP11 0.7 μM 60 min before NMDA 50 μM 15 min, 20 h): significantly decreased

CC(C)c1cc2c(c(O)c1O)[C@@]1(C(=O)O)CCCC(C)(C)[C@@H]1CC2 [CA, carnosic acid]
ARE activation with Nrf2-DN (ARE [1]; 3 μM CA): abrogated by Nrf2-DN
ARE-mediated transcription increase (ARE [1]; 3 μM CA, E17 DIV21, 24 h): 2.3 fold
infarct volume, % of the ipsilateral hemisphere (MCAO/reperfusion injury; CA 1 mg/kg i.p. 1 h prior to MCAO, 2-h MCAO/24-h reperfusion, vehicle 51.2±2.4%): 34.5±3.6%
localization of Nrf2 protein (Nrf2): translocated into the nucleus
ARE activation with co-transfection of Nrf2-DN or Keap1 (ARE [2]; PC12h cells, CA): significantly repressed
stimulation of ARE-based transcription (ARE [2]; PC12h cells, CA 10 μM): > 10 fold
ARE activation relative to sulforaphane (ARE [2]; equimolar basis, 20 h): to a much greater extent than sulforaphane
ratio of GSH/GSSG in brain (GSH): increased
total GSH+GSSG in brain (GSH): increased
viability at 3 µM (cerebrocortical neurons; Rattus norvegicus, Cerebrocortical neuron, read-out: survival (viable cells) after NMDA): 36 ± 2.3%
